Results on one compound are retold here after patent publication US9428478B2, “Piperazine derivatives, compositions, and uses related thereto” (Emory University, priority 2011, dated 2016).

A word on the solubility: it is the concentration that dissolves in the medium under given conditions. Higher therefore signals a readily soluble substance.

Data set [1] in a line: Stability in liver S9-fractions, mouse. In kind it is in vitro ADME. As to conditions: read-out: Stability in liver S9-fractions (t ½) Mouse (converted).
Data set [2] in a line: Stability in liver S9-fractions, human. In kind it is in vitro ADME. The settings on record: read-out: Stability in liver S9-fractions (t ½) Human (converted).
Data set [3] addresses T1, Nox2 (Homo sapiens (Human), UniProt P04839). As to the kind of experiment: Nox2 activity assay for primary screening (cell free, human neutrophil plasma membranes, LO12 luminescence). In kind it is biochemical. The method, then:
Nox2 activity assay for primary screening: Plasma membranes were prepared from human neutrophils, which express large amounts of Nox2, stored at −80 C until use. See Curnutte et al., J. Biol. Chem. 1987, 262, 6450-6452, hereby incorporated by reference. Membranes are mixed with recombinant, purified cytosolic regulatory proteins (p67Np47N chimera, and a constitutively active mutant of Rac, Rac1(Q61)) and FAD, along with varying concentrations of compound, and LO12, which emits light when it reacts with ROS. The reaction is initiated by addition of NADPH and SDS (an artificial activator of Nox2).
Target sequence in this assay (P04839 2-570): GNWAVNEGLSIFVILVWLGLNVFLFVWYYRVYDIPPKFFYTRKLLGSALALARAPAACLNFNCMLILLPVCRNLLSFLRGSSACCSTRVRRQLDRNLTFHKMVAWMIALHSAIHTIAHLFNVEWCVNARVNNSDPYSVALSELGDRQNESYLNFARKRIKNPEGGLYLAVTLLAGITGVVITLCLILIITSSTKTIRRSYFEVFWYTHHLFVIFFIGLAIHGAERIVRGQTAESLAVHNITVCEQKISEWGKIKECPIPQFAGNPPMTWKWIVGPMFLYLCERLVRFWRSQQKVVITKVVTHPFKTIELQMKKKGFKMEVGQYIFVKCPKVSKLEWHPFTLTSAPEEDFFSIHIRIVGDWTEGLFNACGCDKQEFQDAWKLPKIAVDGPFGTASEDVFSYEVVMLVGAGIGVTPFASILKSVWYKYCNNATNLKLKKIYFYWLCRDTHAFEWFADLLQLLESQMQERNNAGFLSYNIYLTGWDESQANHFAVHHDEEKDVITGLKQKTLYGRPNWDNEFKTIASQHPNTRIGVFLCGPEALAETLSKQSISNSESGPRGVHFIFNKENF

The target of another data set is Nox1 (Homo sapiens (Human), UniProt Q9Y5S8). In words: Nox1 inhibition. In kind it is biochemical. The settings on record: Table 3.
Nox1, sequence (Q9Y5S8 whole entry, species assumed): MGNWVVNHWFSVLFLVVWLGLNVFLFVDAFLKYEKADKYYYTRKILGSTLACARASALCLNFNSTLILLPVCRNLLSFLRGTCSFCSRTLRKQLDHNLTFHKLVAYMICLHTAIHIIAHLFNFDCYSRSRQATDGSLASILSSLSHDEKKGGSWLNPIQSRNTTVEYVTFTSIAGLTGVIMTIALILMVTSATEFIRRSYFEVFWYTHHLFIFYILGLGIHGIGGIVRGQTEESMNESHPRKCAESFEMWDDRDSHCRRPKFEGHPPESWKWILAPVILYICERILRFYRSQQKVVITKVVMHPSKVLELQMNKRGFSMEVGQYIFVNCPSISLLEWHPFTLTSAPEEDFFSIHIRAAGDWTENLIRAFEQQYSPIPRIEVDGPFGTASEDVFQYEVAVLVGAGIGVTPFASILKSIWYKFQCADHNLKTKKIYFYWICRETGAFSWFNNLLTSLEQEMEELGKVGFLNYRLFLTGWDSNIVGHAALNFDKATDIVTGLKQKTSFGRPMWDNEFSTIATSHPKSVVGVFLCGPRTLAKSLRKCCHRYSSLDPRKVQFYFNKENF
Nox1, sequence (P13498 2-195 partner, species assumed): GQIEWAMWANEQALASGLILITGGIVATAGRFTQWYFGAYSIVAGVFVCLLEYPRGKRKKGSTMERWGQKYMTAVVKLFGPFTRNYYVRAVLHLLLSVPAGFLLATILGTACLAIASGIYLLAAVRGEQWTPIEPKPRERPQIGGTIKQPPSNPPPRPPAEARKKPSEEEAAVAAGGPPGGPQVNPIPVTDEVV
In the next data set the target is human Nox4 (Homo sapiens (Human), UniProt Q9NPH5). As to the kind of experiment: Nox4 assay using stably transfected HEK cells. In kind it is cell-based. On the procedure:
(§1) Nox2 assay in human neutrophils: Human neutrophils were obtained from healthy volunteers (REF). LO12 luminescence was quantified as above. Nox4 assay using stably transfected HEK cell: HEK cells stably transfected with human Nox4 were incubated with varying concentrations of compound along with LO12.
Nox4 produces hydrogen peroxide rather than superoxide; under these conditions LO12 luminesces only after the addition of horseradish peroxidase to initiate the reaction.

The next data set has as its target xanthine oxidase (Homo sapiens (Human), UniProt P47989). In words: Assay control: xanthine oxidase (XO) replaces Nox2 as the source of ROS, LO12 luminescence. The settings on record: Table 2, xanthine oxidase control. In kind it is biochemical. The method, then:
Assay controls. To rule out interference with either Nox2 or Nox4 luminescence assays, two approaches are used. In one, xanthine oxidase replaces the Nox2 enzymatic system as the source of ROS in the Nox2/LO12 assay. Xanthine is added to initiate the reaction and LO12 luminescence is recorded. In the other, exogenous H2O2 is supplied in place of the Nox4 expressing H2O2-generating cells and luminescence is recorded.

A short description of data set [4]: Stability in liver S9-fractions, dog. In kind it is in vitro ADME. As to conditions: read-out: Stability in liver S9-fractions (t ½) Dog (converted).
Data set [5] concerns the target T1, Nox2. As to the kind of experiment: Nox2 assay in human neutrophils (PMN), LO12 luminescence. In kind it is cell-based. On the procedure: as §1
Target sequence in this assay (P04839 whole entry, looked up): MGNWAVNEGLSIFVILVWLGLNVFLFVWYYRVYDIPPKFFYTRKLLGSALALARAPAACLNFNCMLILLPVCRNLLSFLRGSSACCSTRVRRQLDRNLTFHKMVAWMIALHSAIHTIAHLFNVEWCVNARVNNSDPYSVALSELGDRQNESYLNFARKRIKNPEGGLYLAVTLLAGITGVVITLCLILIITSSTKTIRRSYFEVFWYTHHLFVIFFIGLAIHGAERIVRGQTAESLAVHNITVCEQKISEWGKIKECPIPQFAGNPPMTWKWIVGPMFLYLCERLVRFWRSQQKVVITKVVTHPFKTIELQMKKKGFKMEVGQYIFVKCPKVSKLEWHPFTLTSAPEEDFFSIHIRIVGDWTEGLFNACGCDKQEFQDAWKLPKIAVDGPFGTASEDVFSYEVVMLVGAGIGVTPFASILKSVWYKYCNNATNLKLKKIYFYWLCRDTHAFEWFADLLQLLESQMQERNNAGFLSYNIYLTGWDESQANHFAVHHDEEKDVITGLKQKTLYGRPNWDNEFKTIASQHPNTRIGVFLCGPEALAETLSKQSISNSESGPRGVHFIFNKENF
Target sequence in this assay (P13498 whole entry partner, looked up): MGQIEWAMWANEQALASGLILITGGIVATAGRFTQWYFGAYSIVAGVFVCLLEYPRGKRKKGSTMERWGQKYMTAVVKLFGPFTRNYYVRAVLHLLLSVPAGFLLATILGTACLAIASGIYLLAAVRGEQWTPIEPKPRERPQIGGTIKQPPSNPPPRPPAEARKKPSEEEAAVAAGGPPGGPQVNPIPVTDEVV
The next data set can be described thus: Solubility. In kind it is physicochemical.

Structures are written as SMILES.

human Nox4, sequence (Q9NPH5 whole entry): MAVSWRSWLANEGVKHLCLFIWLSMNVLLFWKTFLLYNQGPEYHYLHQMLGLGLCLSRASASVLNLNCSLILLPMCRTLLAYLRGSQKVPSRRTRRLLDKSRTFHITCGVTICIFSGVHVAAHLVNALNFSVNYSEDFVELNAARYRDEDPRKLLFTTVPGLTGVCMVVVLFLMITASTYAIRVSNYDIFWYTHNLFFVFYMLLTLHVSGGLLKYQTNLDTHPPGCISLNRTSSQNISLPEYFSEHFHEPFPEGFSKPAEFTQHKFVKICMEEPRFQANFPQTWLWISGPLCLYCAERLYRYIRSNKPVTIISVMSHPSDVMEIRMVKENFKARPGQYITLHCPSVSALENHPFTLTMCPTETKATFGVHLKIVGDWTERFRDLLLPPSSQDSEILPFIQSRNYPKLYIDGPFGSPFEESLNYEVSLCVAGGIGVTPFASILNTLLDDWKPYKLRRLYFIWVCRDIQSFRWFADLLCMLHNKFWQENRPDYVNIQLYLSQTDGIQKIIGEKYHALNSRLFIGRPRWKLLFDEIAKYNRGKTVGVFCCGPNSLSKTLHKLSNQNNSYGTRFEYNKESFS
human Nox4, sequence (P13498 2-195 partner): as the sequence (P13498 2-195 partner, species assumed) above
xanthine oxidase, sequence (P47989 whole entry, species assumed): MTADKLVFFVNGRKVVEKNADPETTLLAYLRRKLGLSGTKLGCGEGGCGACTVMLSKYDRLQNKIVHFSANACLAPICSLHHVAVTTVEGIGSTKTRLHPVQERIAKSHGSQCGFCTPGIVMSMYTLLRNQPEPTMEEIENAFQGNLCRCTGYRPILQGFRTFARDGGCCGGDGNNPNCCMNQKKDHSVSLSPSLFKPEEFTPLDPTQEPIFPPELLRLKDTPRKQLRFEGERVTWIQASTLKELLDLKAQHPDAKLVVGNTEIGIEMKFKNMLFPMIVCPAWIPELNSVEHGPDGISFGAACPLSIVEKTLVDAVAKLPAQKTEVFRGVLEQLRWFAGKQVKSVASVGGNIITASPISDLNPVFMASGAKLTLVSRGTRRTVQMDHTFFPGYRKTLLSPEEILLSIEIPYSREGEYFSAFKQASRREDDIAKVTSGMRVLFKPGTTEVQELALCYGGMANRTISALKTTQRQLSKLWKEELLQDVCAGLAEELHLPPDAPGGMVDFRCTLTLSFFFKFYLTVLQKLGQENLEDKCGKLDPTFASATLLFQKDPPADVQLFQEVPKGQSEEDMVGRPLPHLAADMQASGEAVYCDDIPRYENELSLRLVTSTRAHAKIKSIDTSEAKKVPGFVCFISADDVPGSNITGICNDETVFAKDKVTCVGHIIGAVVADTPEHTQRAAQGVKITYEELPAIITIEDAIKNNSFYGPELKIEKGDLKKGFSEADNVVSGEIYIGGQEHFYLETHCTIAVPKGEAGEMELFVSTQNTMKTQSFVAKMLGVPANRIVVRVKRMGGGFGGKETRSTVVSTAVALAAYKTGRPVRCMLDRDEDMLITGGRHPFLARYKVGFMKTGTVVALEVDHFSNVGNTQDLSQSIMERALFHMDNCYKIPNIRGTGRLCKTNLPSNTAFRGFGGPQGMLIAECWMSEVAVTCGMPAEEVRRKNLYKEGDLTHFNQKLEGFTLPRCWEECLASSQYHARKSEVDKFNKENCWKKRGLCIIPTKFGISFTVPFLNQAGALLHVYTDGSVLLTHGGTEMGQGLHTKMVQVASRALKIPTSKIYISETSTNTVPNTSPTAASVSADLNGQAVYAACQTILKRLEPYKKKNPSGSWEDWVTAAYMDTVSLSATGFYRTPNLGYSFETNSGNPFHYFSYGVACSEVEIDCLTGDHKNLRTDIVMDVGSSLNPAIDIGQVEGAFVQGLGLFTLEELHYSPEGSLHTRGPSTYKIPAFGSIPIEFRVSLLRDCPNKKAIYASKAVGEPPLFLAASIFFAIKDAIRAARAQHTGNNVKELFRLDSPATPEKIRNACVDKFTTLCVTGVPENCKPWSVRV

Turning to `COc1ccc(N2CCN(C(=O)c3cc4cc(C(C)=O)ccc4[nH]3)CC2)cc1` [TG6-161, 1-(2-(4-(4-methoxyphenyl)piperazine-1-carbonyl)-1H-indol-5-yl)ethanone], the half-life is 3 h in data set [1], 0.75 h in [2] and 2 h in data set [4]. The IC50 was 0.4 µM on Nox2 [3] (Table 2, read-out: IC50 Nox2); 0.3 µM on Nox2 [3] (Table 3, read-out: Nox2 (Cell Free)); 0.2 to 0.3 µM at Nox2 [3] (read-out: IC50, Nox2 cell free system); 0.6 µM against Nox1; 20 to 30 µM at human Nox4 (using two different assays); more than 20 µM at xanthine oxidase. In addition, the IC50 on Nox2 [5] (Table 3, human neutrophils, read-out: Nox2 (PMN)) is 0.2 µM; at Nox2 [5] (read-out: IC50, ROS production in human neutrophils), 0.2 to 0.3 µM. Besides, the “selectivity for Nox2 compared with Nox4” value on human Nox4 is not below 100 fold. Also, the solubility in “Solubility” is less than 25 µM.
